The values below come from patent US20230256102A1, “COMPOSITES AND USES THEREOF” (YISSUM RESEARCH DEVELOPMENT COMPANY OF THE HEBREW …, priority 2019, published 2023).

Square brackets hold non-standard residues; d marks the D form. Peptide text beside a SMILES is read from it. * marks the point of attachment. Palmitoyl = CCCCCCCCCCCCCCCC(=O)*

One test concerns Xanthomonas campestris pv. campestris (Xcc) ATCC 33913. Put plainly: Minimal inhibitory concentration (MIC) assay. In kind it is cell-based. As to conditions: 24 h, 28° C. As for the experimental part:
Bacterial strains and growth conditions: The bacterial strains used in this study are detailed in Table 2. Unless stated otherwise, all strains were grown on nutrient agar (NA, Difco) or nutrient broth (NB, Difco), except Pst that was grown on Kings B agar plates and NB. All strains were grown at 28° C. for 48 h. All bacterial cells used in this study were stored in 25% glycerol at −80° C.
Minimal inhibitory concentration (MIC) assay: MIC values were determined by broth microdilution in sterile 96-flat bottom well plates (Corning 3650) as described by Hayouka et al. (2013). Briefly, Xcc cells were grown for 24 h in NB at 28° C., with shaking (180 rpm) and re-suspended in fresh NB to reach an OD600 nm of 0.1 (˜10^8 CFU/ml) that was measured using a Genesys 10 uv spectrophotometer (ThermoSpectronic). One hundred microliter-aliquots of Xcc cells were added to 100 μl of NB medium containing peptides/lipopeptides at various concentrations. Bacterial growth was determined after incubation of 24 h at 28° C. by measurement of the optical density (OD595 nm), using a Tecan infinite Pro Plate reader. […] The highest concentration tested was 200 μg/ml. Each experiment was carried out at least three times, with three replicates per strain/concentration combination in each experiment.
For `CCCCCCCCCCCCCCCC(=O)N[C@@H](Cc1ccccc1)C(=O)N[C@H](CCCCN)C(=O)N[C@H](CCCCN)C(=O)N[C@H](CCCCN)C(=O)N[C@H](CCCCN)C(N)=O` [lipopeptide #6, p-Fkkkk] (Palmitoyl-F[dK][dK][dK][dK]-NH2), the MIC value is 12 µg/mL.

With `CCCCCCCCCCCCCCCC(=O)N[C@@H](Cc1ccccc1)C(=O)N[C@@H](Cc1ccccc1)C(=O)N[C@H](CCCCN)C(=O)N[C@H](CCCCN)C(=O)N[C@H](CCCCN)C(N)=O` [lipopeptide #16, p-FFkkk] (Palmitoyl-FF[dK][dK][dK]-NH2), the MIC value stood at 50 µg/mL.

With `CCCCCCCCCCCCCCCC(=O)N[C@@H](Cc1ccccc1)C(=O)N[C@H](CCCCN)C(=O)N[C@H](CCCCN)C(=O)N[C@@H](Cc1ccccc1)C(=O)N[C@@H](Cc1ccccc1)C(N)=O` [lipopeptide #19, p-FkkFF] (Palmitoyl-F[dK][dK]FF-NH2), the MIC value was found to be 38 µg/mL.

Still in this test, the particulars now being: 24 h, 28° C., ND = non-detected at tested concentrations (up to 200 μg/ml).
For `CCCCCCCCCCCCCCCC(=O)N[C@H](CCCCN)C(=O)N[C@H](CCCCN)C(=O)N[C@H](CCCCN)C(=O)N[C@H](CCCCN)C(=O)N[C@H](CCCCN)C(N)=O` [lipopeptide #1, p-kkkkk] (Palmitoyl-[dK][dK][dK][dK][dK]-NH2), the “Average MIC” value is 6 µg/mL.

As for `CCCCCCCCCCCCCCCC(=O)N[C@H](CCCCN)C(=O)N[C@H](CCCCN)C(=O)N[C@H](CCCCN)C(=O)N[C@H](CCCCN)C(=O)N[C@@H](Cc1ccccc1)C(N)=O` [lipopeptide #2, p-kkkkF] (Palmitoyl-[dK][dK][dK][dK]F-NH2), the “Average MIC” value was determined as 6 µg/mL.

With `CCCCCCCCCCCCCCCC(=O)N[C@H](CCCCN)C(=O)N[C@H](CCCCN)C(=O)N[C@H](CCCCN)C(=O)N[C@@H](Cc1ccccc1)C(=O)N[C@H](CCCCN)C(N)=O` [lipopeptide #3, p-kkkFk] (Palmitoyl-[dK][dK][dK]F[dK]-NH2), the “Average MIC” value turned out to be 4 µg/mL.

Turning to `CCCCCCCCCCCCCCCC(=O)N[C@H](CCCCN)C(=O)N[C@H](CCCCN)C(=O)N[C@@H](Cc1ccccc1)C(=O)N[C@H](CCCCN)C(=O)N[C@H](CCCCN)C(N)=O` [lipopeptide #4, p-kkFkk] (Palmitoyl-[dK][dK]F[dK][dK]-NH2), the “Average MIC” value came to 6 µg/mL.

As for `CCCCCCCCCCCCCCCC(=O)N[C@H](CCCCN)C(=O)N[C@@H](Cc1ccccc1)C(=O)N[C@H](CCCCN)C(=O)N[C@H](CCCCN)C(=O)N[C@H](CCCCN)C(N)=O` [lipopeptide #5, p-kFkkk] (Palmitoyl-[dK]F[dK][dK][dK]-NH2), the “Average MIC” value amounted to 6 µg/mL.

Regarding `CCCCCCCCCCCCCCCC(=O)N[C@H](CCCCN)C(=O)N[C@H](CCCCN)C(=O)N[C@H](CCCCN)C(=O)N[C@@H](Cc1ccccc1)C(=O)N[C@@H](Cc1ccccc1)C(N)=O` [lipopeptide #7, p-kkkFF] (Palmitoyl-[dK][dK][dK]FF-NH2), the “Average MIC” value was 14 µg/mL.

As for `CCCCCCCCCCCCCCCC(=O)N[C@H](CCCCN)C(=O)N[C@H](CCCCN)C(=O)N[C@@H](Cc1ccccc1)C(=O)N[C@H](CCCCN)C(=O)N[C@@H](Cc1ccccc1)C(N)=O` [lipopeptide #8, p-kkFkF] (Palmitoyl-[dK][dK]F[dK]F-NH2), the “Average MIC” value was determined as 6 µg/mL.

For `CCCCCCCCCCCCCCCC(=O)N[C@H](CCCCN)C(=O)N[C@@H](Cc1ccccc1)C(=O)N[C@H](CCCCN)C(=O)N[C@H](CCCCN)C(=O)N[C@@H](Cc1ccccc1)C(N)=O` [lipopeptide #9, p-kFkkF] (Palmitoyl-[dK]F[dK][dK]F-NH2), the “Average MIC” value came to 5 µg/mL.

Regarding `CCCCCCCCCCCCCCCC(=O)N[C@@H](Cc1ccccc1)C(=O)N[C@H](CCCCN)C(=O)N[C@H](CCCCN)C(=O)N[C@H](CCCCN)C(=O)N[C@@H](Cc1ccccc1)C(N)=O` [lipopeptide #10, p-FkkkF] (Palmitoyl-F[dK][dK][dK]F-NH2), the “Average MIC” value was found to be 6 µg/mL.

As to `CCCCCCCCCCCCCCCC(=O)N[C@H](CCCCN)C(=O)N[C@H](CCCCN)C(=O)N[C@@H](Cc1ccccc1)C(=O)N[C@@H](Cc1ccccc1)C(=O)N[C@H](CCCCN)C(N)=O` [lipopeptide #11, p-kkFFk] (Palmitoyl-[dK][dK]FF[dK]-NH2), the “Average MIC” value was determined as 6 µg/mL.

Take `CCCCCCCCCCCCCCCC(=O)N[C@H](CCCCN)C(=O)N[C@@H](Cc1ccccc1)C(=O)N[C@H](CCCCN)C(=O)N[C@@H](Cc1ccccc1)C(=O)N[C@H](CCCCN)C(N)=O` [lipopeptide #12, p-kFkFk] (Palmitoyl-[dK]F[dK]F[dK]-NH2): the “Average MIC” value was 12 µg/mL.

For `CCCCCCCCCCCCCCCC(=O)N[C@@H](Cc1ccccc1)C(=O)N[C@H](CCCCN)C(=O)N[C@H](CCCCN)C(=O)N[C@@H](Cc1ccccc1)C(=O)N[C@H](CCCCN)C(N)=O` [lipopeptide #13, p-FkkFk] (Palmitoyl-F[dK][dK]F[dK]-NH2), the “Average MIC” value was found to be 6 µg/mL.

For the compound `CCCCCCCCCCCCCCCC(=O)N[C@H](CCCCN)C(=O)N[C@@H](Cc1ccccc1)C(=O)N[C@@H](Cc1ccccc1)C(=O)N[C@H](CCCCN)C(=O)N[C@H](CCCCN)C(N)=O` [lipopeptide #14, p-kFFkk] (Palmitoyl-[dK]FF[dK][dK]-NH2), the “Average MIC” value was 8 µg/mL.

Regarding `CCCCCCCCCCCCCCCC(=O)N[C@@H](Cc1ccccc1)C(=O)N[C@H](CCCCN)C(=O)N[C@@H](Cc1ccccc1)C(=O)N[C@H](CCCCN)C(=O)N[C@H](CCCCN)C(N)=O` [lipopeptide #15, p-FkFkk] (Palmitoyl-F[dK]F[dK][dK]-NH2), the “Average MIC” value was found to be 10 µg/mL.

For the compound `CCCCCCCCCCCCCCCC(=O)N[C@H](CCCCN)C(=O)N[C@H](CCCCN)C(=O)N[C@@H](Cc1ccccc1)C(=O)N[C@@H](Cc1ccccc1)C(=O)N[C@@H](Cc1ccccc1)C(N)=O` [lipopeptide #17, p-kkFFF] (Palmitoyl-[dK][dK]FFF-NH2), the “Average MIC” value is 50 µg/mL.

As for `CCCCCCCCCCCCCCCC(=O)N[C@H](CCCCN)C(=O)N[C@@H](Cc1ccccc1)C(=O)N[C@H](CCCCN)C(=O)N[C@@H](Cc1ccccc1)C(=O)N[C@@H](Cc1ccccc1)C(N)=O` [lipopeptide #18, p-kFkFF] (Palmitoyl-[dK]F[dK]FF-NH2), the “Average MIC” value was determined as 50 µg/mL.

As for `CCCCCCCCCCCCCCCC(=O)N[C@H](CCCCN)C(=O)N[C@@H](Cc1ccccc1)C(=O)N[C@@H](Cc1ccccc1)C(=O)N[C@H](CCCCN)C(=O)N[C@@H](Cc1ccccc1)C(N)=O` [lipopeptide #20, p-kFFkF] (Palmitoyl-[dK]FF[dK]F-NH2), the “Average MIC” value stood at 100 µg/mL.

`CCCCCCCCCCCCCCCC(=O)N[C@@H](Cc1ccccc1)C(=O)N[C@H](CCCCN)C(=O)N[C@@H](Cc1ccccc1)C(=O)N[C@H](CCCCN)C(=O)N[C@@H](Cc1ccccc1)C(N)=O` [lipopeptide #21, p-FkFkF] (Palmitoyl-F[dK]F[dK]F-NH2): the “Average MIC” value stood at 38 µg/mL.

`CCCCCCCCCCCCCCCC(=O)N[C@H](CCCCN)C(=O)N[C@@H](Cc1ccccc1)C(=O)N[C@@H](Cc1ccccc1)C(=O)N[C@@H](Cc1ccccc1)C(=O)N[C@H](CCCCN)C(N)=O` [lipopeptide #23, p-kFFFk] (Palmitoyl-[dK]FFF[dK]-NH2): the “Average MIC” value stood at 100 µg/mL.

Staying with this test, now noted: highest concentration tested 200 μg/ml.
For the compound p-FFFkk [lipopeptide #26], the “inhibitory activity in MIC assay (in words)” value (“inhibitory activity” below) is given as “not active”.

As to p-FFkFk [lipopeptide #25], the “inhibitory activity” value was “no inhibitory activity”.

In the case of p-FFkkF [lipopeptide #22], the “inhibitory activity” value is “no inhibitory activity”.

Take p-FkFFk [lipopeptide #24]: the “inhibitory activity” value is “no inhibitory activity”.

For a further test, the system named is MRSA cells. Put plainly: Mixing leucine-lysine random peptide mixtures and copper ions assay. In kind it is cell-based, Staphylococcus aureus. To be noted: 400 ppm copper sulfate, 6 hours. On the procedure: Mixing Leucine-Lysine random peptide mixtures and copper ions assay: MRSA cells were grown as described in order to prepare a bacterial suspension with O.D.600 nm of 0.1. […] After mixing by vortex, a 1 mL sample was taken for O.D. measurement and the remaining 1 mL sample was incubated for 6 hours at 37° C., 100 RPM. After this time, the O.D. was re-measured and the percentage growth was calculated according to the equation: […]
For `O=S(=O)([O-])[O-].[Cu+2]` [copper sulfate], the “growth of MRSA lower than the control” value is approximately 15%.
